Measurements reported in publication PMC6156427, “Characterization of NGFFYamide Signaling in Starfish Reveals Roles in Regulation of Feeding Behavior and Locomotory Systems” (Frontiers in Endocrinology, 2018).
No end group written: not given here.

What was measured:
[1] = system: tube foot preparations from A. rubens; conditions: ACh 10^−6 M; ref [54], [57]; cited from earlier work
Procedure: Here, NGFFYamide was tested in vitro to investigate its effect on apical muscle and tube foot preparations from A. rubens, using the same methods reported previously when testing other neuropeptides ([53], [54], [56]). Briefly, the apical muscle was dissected from the aboral body wall of starfish arms and cut into segments approximately 1 cm in length and cotton ligatures were tied at each end. […] Thus, application of NGFFYamide triggered phasic contractions of tube feet that were superimposed upon an increase in basal tone. Furthermore, there was concentration-dependency in the effect of NGFFYamide on both the amplitude and the frequency of the phasic contractions. This action of NGFFYamide on tube feet is interesting because it is the first neuropeptide that we have ...

[2] = system: apical muscle preparations from A. rubens; conditions: ACh 10^−6 M; ref [54], [57]; cited from earlier work
Procedure: Investigation of the physiological roles of NG peptides in echinoderms was advanced most recently with the discovery of the precursor of the NG peptide NGFFYamide (NGFFY-NH2) in the starfish A. rubens. Research on neuropeptide systems in this species led to the discovery of the first echinoderm neuropeptides to be sequenced—the SALMFamide neuropeptides S1 and S2 ([45]). […] Here, NGFFYamide was tested in vitro to investigate its effect on apical muscle and tube foot preparations from A. rubens, using the same methods reported previously when testing other neuropeptides ([53], [54], [56]). Briefly, the apical muscle was dissected from the aboral body wall of starfish arms and cut into segments approximately 1 cm in length and cotton ligatures were tied at each end. […] Thus, NGFFYamide precursor-expressing cells are present in the coelomic lining of the apical muscle, a thickening of the longitudinally orientated body wall muscle layer located in an aboral and sagittal position in each arm.

[3] = system: tube foot preparations from the sea urchin E. esculentus; conditions: Echinus esculentus; ref [35]; cited from earlier work
Text: (§1) Having analyzed both the anatomical expression pattern and bioactivity of NGFFYamide in the starfish A. rubens, it is of interest to make comparisons with what is known about the physiological roles of NG peptides in other echinoderms. The first NG peptide to be identified in an echinoderm was NGIWYamide, which was isolated from the sea cucumber A. japonicus on account of its effect in causing contraction of longitudinal body wall muscles in this species ([42]).

[4] = system: esophagus preparations from the sea urchin E. esculentus; conditions: Echinus esculentus; ref [35]; cited from earlier work
Text: as §1

[5] = system: NPS/CCAP-type receptor in the sea urchin S. purpuratus; conditions: ref [8]; cited from earlier work
Text: Evidence that NG peptides are orthologs of vertebrate NPS-type neuropeptides was provided by analysis of the sequence of the NG peptide precursor in the cephalochordate B. floridae, which comprises two copies of a peptide (SFRNGVG) that is identical to the N-terminal region of NPS ([…]) ([34]). However, definitive proof was provided with the discovery that an NPS/CCAP-type receptor in the sea urchin S. purpuratus is activated by the neuropeptide NGFFFamide ([8]). Thus, a bilaterian neuropeptide family comprising NPS in vertebrates, NG peptides in invertebrate deuterostomes and ...

[6] = system: tube foot preparations from A. rubens; assay: in vitro pharmacology, tube foot preparations; set-up: species or system Asterias rubens; conditions: read-out: half maximal response concentration (EC50), tonic contraction; tonic contraction of tube feet, 10^−9-10^−6 M; six measurements; 11°C; four-parameter curve
Procedure: Here, NGFFYamide was tested in vitro to investigate its effect on apical muscle and tube foot preparations from A. rubens, using the same methods reported previously when testing other neuropeptides ([53], [54], [56]). Briefly, the apical muscle was dissected from the aboral body wall of starfish arms and cut into segments approximately 1 cm in length and cotton ligatures were tied at each end. Tube foot preparations were obtained by dissecting from starfish arms a small square-shaped piece of ambulacral body wall containing a single tube foot podium and its associated ampullae. […] A relaxant effect of NGFFYamide on apical muscle preparations was expressed as a percentage reversal of the maximal contraction induced by 10^−6 M ACh. […] For phasic contractions, peak amplitude and frequency were quantified over a 5-min recording period and expressed as mean amplitude and mean peaks/minute, respectively. For in vitro characterization of the effects of NGFFYamide on tube foot preparations, a concentration-response curve was fitted with a four-parameter curve and the EC50 value was calculated based on six measurements. The in vitro effect of NGFFYamide on basal tone was analyzed by one-way ANOVA using Bonferroni's multiple comparisons post-hoc test. […]

[7] = system: longitudinal body wall muscle; conditions: A. japonicus; ref [43]; cited from earlier work
Text: as §1

[8] = system: body wall mutable collagenous tissue; conditions: A. japonicus; ref [64]; cited from earlier work
Text: as §1

[9] = system: intestine preparations; conditions: A. japonicus; ref [43]; cited from earlier work
Text: as §1

[10] = system: tentacle preparations; conditions: A. japonicus; ref [43]; cited from earlier work
Text: as §1

[11] = system: oocyte maturation and spawning; conditions: A. japonicus; ref [44]; cited from earlier work
Text: as §1

[12] = system: moth Manduca sexta; conditions: ref [28], [78], [79]; cited from earlier work
Text: (§2) Furthermore, there is substantial evidence that CCAP is one of several neuropeptides that regulate shedding of the exoskeleton (ecdysis) in arthropods. Thus, a dramatic increase in circulating levels of CCAP has been observed in two crustacean species during ecdysis ([26]).

[13] = system: oviduct; conditions: Locusta migratoria; ref [82]; cited from earlier work
Text: as §2

[14] = system: cockroach P. americana; conditions: ref [33]; cited from earlier work
Text: as §2

[15] = system: gut; conditions: cockroaches; ref [32], [83]; cited from earlier work
Text: as §2

[16] = system: crustaceans; conditions: ref [25]; cited from earlier work
Text: as §2

[17] = system: "orphan" G-protein coupled receptor GPR154; conditions: ref [65]; cited from earlier work
Text: (§3) Thus, nothing was known about its physiological roles when NPS was first identified. […] Furthermore, evidence that the anxiolytic effect ...

[18] = system: mammals; conditions: ref [15], [18], [72]–[75]; cited from earlier work
Text: as §3

[19] = system: rats; conditions: ref [9]; cited from earlier work
Text: as §3

[20] = system: mice; conditions: ref [9], cited from earlier work
Text: as §3

[21] = system: rodents; conditions: ref [76]; cited from earlier work
Text: as §3

CC(=O)OCC[N+](C)(C)C [acetylcholine]
contractant of starfish tube feet [1]: known contractant
contractant of starfish apical muscle [2]: known contractant

NGFFF-NH2 [NGFFFamide]
contraction of tube foot preparations [3]: contraction
contraction of esophagus preparations [4]: contraction
activation of NPS/CCAP-type receptor [5]: activated

NGFFY-NH2 [NGFFYamide]
EC50 [6]: 14 nM

NGIWYamide
contraction of longitudinal body wall muscle [7]: tonic contraction
effect on body wall mutable collagenous tissue [8]: stiffening
spontaneous phasic contractions of intestine preparations [9]: inhibition
contraction of tentacle preparations [10]: tonic contraction
oocyte maturation and spawning [11]: induction of oocyte maturation and spawning

PFCNAFTGC-NH2 [CCAP, 9-residue neuropeptide first discovered in the crustacean Carcinus maenas]
ecdysis motor program [12]: activates an ecdysis motor program
oviduct contractions [13]: induction of oviduct contractions
locomotor activity [14]: inhibition of locomotor activity
gut contraction and secretion of digestive enzymes [15]: stimulation of gut contraction and secretion of digestive enzymes
cardioexcitatory effect [16]: cardioexcitatory

SFRNGVGTGMKKTSFQRAKS [NPS, 20-residue neuropeptide first discovered in rodents]
ligand of GPR154 [17]: endogenous ligand
food intake (inhibition) [18]: inhibition of food intake
wakefulness [19]: increases wakefulness
anxiolytic-like effects ([20]; mice exposed to stressful conditions): anxiolytic-like effects
locomotor activity [20]: increases locomotor activity
food intake (increase, one study) [21]: increase food intake
